# Experimental data taken from PubChem BioAssay (NCI).
#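 Cultured in 96-well plates, cells were exposed to test compound for 48 hours across five concentrations. At the TGI there is no net growth.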
# Legend:
# Assay in all cases: growth of human tumour cells (NCI), 48 h
# 786-0 renal = test system: 786-0 renal
# A498 renal = test system: A498 renal
# A549 NSCLC = test system: A549 NSCLC
# ACHN renal = test system: ACHN renal
# BT-549 breast = test system: BT-549 breast
# CAKI-1 renal = test system: CAKI-1 renal
# COLO 205 colon = test system: COLO 205 colon
# DU-145 prostate = test system: DU-145 prostate
# EKVX NSCLC = test system: EKVX NSCLC
# HCC-2998 colon = test system: HCC-2998 colon
# HCT-116 colon = test system: HCT-116 colon
# HCT-15 colon = test system: HCT-15 colon
# HL-60(TB) leukemia = test system: HL-60(TB) leukemia
# HOP-62 NSCLC = test system: HOP-62 NSCLC
# HOP-92 NSCLC = test system: HOP-92 NSCLC
# HS 578T breast = test system: HS 578T breast
# HT29 colon = test system: HT29 colon
# IGROV1 ovarian = test system: IGROV1 ovarian
# K-562 leukemia = test system: K-562 leukemia
# KM12 colon = test system: KM12 colon
# LOX IMVI melanoma = test system: LOX IMVI melanoma
# M14 melanoma = test system: M14 melanoma
# MCF7 breast = test system: MCF7 breast
# MDA-MB-231 breast = test system: MDA-MB-231 breast
# MDA-MB-435 = test system: MDA-MB-435
# MDA-N = test system: MDA-N
# MOLT-4 leukemia = test system: MOLT-4 leukemia
# NCI-H226 lung = test system: NCI-H226 lung
# NCI-H460 lung = test system: NCI-H460 lung
# NCI-H522 lung = test system: NCI-H522 lung
# NCI/ADR-RES ovarian = test system: NCI/ADR-RES ovarian
# OVCAR-3 ovarian = test system: OVCAR-3 ovarian
# OVCAR-4 ovarian = test system: OVCAR-4 ovarian
# OVCAR-5 ovarian = test system: OVCAR-5 ovarian
# OVCAR-8 ovarian = test system: OVCAR-8 ovarian
# PC-3 prostate = test system: PC-3 prostate
# RPMI-8226 leukemia = test system: RPMI-8226 leukemia
# SF-268 CNS = test system: SF-268 CNS
# SF-295 CNS = test system: SF-295 CNS
# SF-539 CNS = test system: SF-539 CNS
# SK-MEL-2 melanoma = test system: SK-MEL-2 melanoma
# SK-MEL-28 melanoma = test system: SK-MEL-28 melanoma
# SK-MEL-5 melanoma = test system: SK-MEL-5 melanoma
# SK-OV-3 ovarian = test system: SK-OV-3 ovarian
# SN12C renal = test system: SN12C renal
# SNB-19 CNS = test system: SNB-19 CNS
# SNB-75 CNS = test system: SNB-75 CNS
# SR leukemia = test system: SR leukemia
# SW-620 colon = test system: SW-620 colon
# T-47D breast = test system: T-47D breast
# TK-10 renal = test system: TK-10 renal
# U251 CNS = test system: U251 CNS
# UACC-257 melanoma = test system: UACC-257 melanoma
# UACC-62 melanoma = test system: UACC-62 melanoma
# CCRF-CEM leukemia = test system: CCRF-CEM leukemia
# MALME-3M melanoma = test system: MALME-3M melanoma
# NCI-H23 lung = test system: NCI-H23 lung
# RXF 393 renal = test system: RXF 393 renal
# UO-31 renal = test system: UO-31 renal
smiles,measurement,setting,value
COc1cc(C2c3cc(OC)c(OC)c(O)c3C(=O)C3CCC(=O)N32)cc(OC)c1OC (stereo not drawn),TGI,786-0 renal,> 100 µM
same,TGI,A498 renal,> 100 µM
same,TGI,A549 NSCLC,> 100 µM
same,TGI,ACHN renal,> 100 µM
same,TGI,BT-549 breast,91.3 µM
same,TGI,CAKI-1 renal,> 100 µM
same,TGI,COLO 205 colon,71.9 µM
same,TGI,DU-145 prostate,> 100 µM
same,TGI,EKVX NSCLC,> 100 µM
same,TGI,HCC-2998 colon,> 100 µM
same,TGI,HCT-116 colon,> 100 µM
same,TGI,HCT-15 colon,> 100 µM
same,TGI,HL-60(TB) leukemia,> 100 µM
same,TGI,HOP-62 NSCLC,> 100 µM
same,TGI,HOP-92 NSCLC,> 100 µM
same,TGI,HS 578T breast,> 100 µM
same,TGI,HT29 colon,> 100 µM
same,TGI,IGROV1 ovarian,> 100 µM
same,TGI,K-562 leukemia,> 100 µM
same,TGI,KM12 colon,> 100 µM
same,TGI,LOX IMVI melanoma,> 100 µM
same,TGI,M14 melanoma,> 100 µM
same,TGI,MCF7 breast,> 100 µM
same,TGI,MDA-MB-231 breast,> 100 µM
same,TGI,MDA-MB-435,39.5 µM
same,TGI,MDA-N,34.5 µM
same,TGI,MOLT-4 leukemia,> 100 µM
same,TGI,NCI-H226 lung,> 100 µM
same,TGI,NCI-H460 lung,> 100 µM
same,TGI,NCI-H522 lung,77.6 µM
same,TGI,NCI/ADR-RES ovarian,> 100 µM
same,TGI,OVCAR-3 ovarian,> 100 µM
same,TGI,OVCAR-4 ovarian,> 100 µM
same,TGI,OVCAR-5 ovarian,> 100 µM
same,TGI,OVCAR-8 ovarian,71.4 µM
same,TGI,PC-3 prostate,> 100 µM
same,TGI,RPMI-8226 leukemia,> 100 µM
same,TGI,SF-268 CNS,> 100 µM
same,TGI,SF-295 CNS,> 100 µM
same,TGI,SF-539 CNS,> 100 µM
same,TGI,SK-MEL-2 melanoma,> 100 µM
same,TGI,SK-MEL-28 melanoma,> 100 µM
same,TGI,SK-MEL-5 melanoma,> 100 µM
same,TGI,SK-OV-3 ovarian,> 100 µM
same,TGI,SN12C renal,> 100 µM
same,TGI,SNB-19 CNS,> 100 µM
same,TGI,SNB-75 CNS,> 100 µM
same,TGI,SR leukemia,> 100 µM
same,TGI,SW-620 colon,> 100 µM
same,TGI,T-47D breast,> 100 µM
same,TGI,TK-10 renal,> 100 µM
same,TGI,U251 CNS,> 100 µM
same,TGI,UACC-257 melanoma,> 100 µM
same,TGI,UACC-62 melanoma,> 100 µM
CN(C)C=NCC(O)c1ccccc1 (stereo not drawn),TGI,786-0 renal,> 100 µM
same,TGI,A498 renal,> 100 µM
same,TGI,A549 NSCLC,> 100 µM
same,TGI,ACHN renal,> 100 µM
same,TGI,BT-549 breast,> 100 µM
same,TGI,CAKI-1 renal,> 100 µM
same,TGI,CCRF-CEM leukemia,> 100 µM
same,TGI,COLO 205 colon,> 100 µM
same,TGI,DU-145 prostate,> 100 µM
same,TGI,EKVX NSCLC,> 100 µM
same,TGI,HCT-116 colon,> 100 µM
same,TGI,HCT-15 colon,> 100 µM
same,TGI,HL-60(TB) leukemia,> 100 µM
same,TGI,HOP-62 NSCLC,> 100 µM
same,TGI,HOP-92 NSCLC,> 100 µM
same,TGI,HS 578T breast,> 100 µM
same,TGI,HT29 colon,> 100 µM
same,TGI,IGROV1 ovarian,> 100 µM
same,TGI,K-562 leukemia,> 100 µM
same,TGI,KM12 colon,> 100 µM
same,TGI,LOX IMVI melanoma,> 100 µM
same,TGI,M14 melanoma,> 100 µM
same,TGI,MALME-3M melanoma,> 100 µM
same,TGI,MCF7 breast,> 100 µM
same,TGI,MDA-MB-231 breast,> 100 µM
same,TGI,MDA-MB-435,> 100 µM
same,TGI,MDA-N,> 100 µM
same,TGI,MOLT-4 leukemia,> 100 µM
same,TGI,NCI-H226 lung,> 100 µM
same,TGI,NCI-H23 lung,> 100 µM
same,TGI,NCI-H460 lung,> 100 µM
same,TGI,NCI-H522 lung,> 100 µM
same,TGI,NCI/ADR-RES ovarian,> 100 µM
same,TGI,OVCAR-3 ovarian,> 100 µM
same,TGI,OVCAR-4 ovarian,> 100 µM
same,TGI,OVCAR-5 ovarian,> 100 µM
same,TGI,PC-3 prostate,> 100 µM
same,TGI,RPMI-8226 leukemia,> 100 µM
same,TGI,RXF 393 renal,> 100 µM
same,TGI,SF-268 CNS,> 100 µM
same,TGI,SF-539 CNS,> 100 µM
same,TGI,SK-MEL-2 melanoma,> 100 µM
same,TGI,SK-MEL-28 melanoma,> 100 µM
same,TGI,SK-MEL-5 melanoma,> 100 µM
same,TGI,SK-OV-3 ovarian,> 100 µM
same,TGI,SN12C renal,> 100 µM
same,TGI,SNB-19 CNS,> 100 µM
same,TGI,SNB-75 CNS,> 100 µM
same,TGI,SR leukemia,> 100 µM
same,TGI,SW-620 colon,> 100 µM
same,TGI,T-47D breast,> 100 µM
same,TGI,TK-10 renal,> 100 µM
same,TGI,UACC-62 melanoma,> 100 µM
same,TGI,UO-31 renal,> 100 µM
